# Columns and labels:
# Format in all cases: in vivo
# [1] = test system: Zymoseptoria tritici strain Zt StA; experiment: In planta preventive efficacy on wheat cv. Alixan against Zymoseptoria tritici strain Zt StA (control strain, sensitive); details: for Disease Severity Intensity: % of length of 2nd leaf blade, preventive 24 h; for AUDPC: control 781.6
# Procedure: (§1) A series of experiments were conducted to evaluate the efficacy of flumetylsulforim (ADF-16) for treating different strains of Zymoseptoria tritici in comparison with commercially available fungicides. Table 1 describes the Z. tritici strains used in this study and Table 2 describes the fungicides used in this study.
# (§2) Winter wheat plants cv. Alixan (Limagrain) at the BBCH 12 growth stage were treated preventively with sterile distilled water (control), ADF-16, penthiopyrad, metconazole or tebuconazole at the rates described in Table 2 with a hand sprayer at 2 bars.
# (§3) After treatment, wheat plants were left to dry at room temperature for 1 hour and then placed in a climatic chamber: temperature of 24 °C day/18 °C night-photoperiod of 16 h light/8 h dark and a relative humidity of 65%.
# (§4) Untreated or treated whole wheat plants were inoculated 24-hours post-treatment with a calibrated pycnospore suspension of Z. tritici strains Zt StA, Zt 61, Zt 99, Zt 20, Zt 19-52, and Zt 38-02. Three replicates (pots) of 6 wheat plants each were used for each condition tested.
# (§5) After inoculation, pots were transferred in a climatic chamber: temperature of 20 °C day/17 °C night—photoperiod of 16 h light/8 h dark and controlled relative humidity.
# (§6) Disease assessments were carried out at 15 days post inoculation (dpi), 21 dpi and 28 dpi by measuring the length of the necrosis on the second leaf blade. The intensity of infection was then determined as a percentage of the total length of 2nd leaf blade.
# (§7) The fungicide efficacies were determined from the Area Under the Disease Progress Curve (AUDPC) values and expressed as a percentage of the untreated control.
# (§8) The AUDPC is a quantitative measure of disease intensity over time. The most commonly used method for estimating the AUDPC, the trapezoidal method, is performed by multiplying the average disease intensity between each pair of adjacent timepoints by the corresponding time interval and this for each time interval. The AUDPC is determined with the following formula by adding all of the trapezoids:
# (§9) [formula] • yi=disease severity at the ith observation • ti=time (days) at the ith observation • N=total number of observations
# [2] = test system: Zymoseptoria tritici strain Zt 99; experiment: In planta preventive efficacy on wheat cv. Alixan against Zymoseptoria tritici strain Zt 99; details: for Disease Severity Intensity: % of length of 2nd leaf blade, preventive 24 h; for AUDPC: control 1352.9
# Procedure: as §1, §2, §3, §4, §5, §6, §7, §8, §9
# [3] = test system: Zymoseptoria tritici strain Zt 61; experiment: In planta preventive efficacy on wheat cv. Alixan against Zymoseptoria tritici strain Zt 61; design: fungicide efficacy: concentration or dose not given beside the values; details: for Disease Severity Intensity: % of length of 2nd leaf blade, preventive 24 h; for AUDPC: control 1194.9
# Procedure: as §1, §2, §3, §4, §5, §6, §7, §8, §9
# [4] = test system: Zymoseptoria tritici strain Zt 20; experiment: In planta preventive efficacy on wheat cv. Alixan against Zymoseptoria tritici strain Zt 20; details: % of length of 2nd leaf blade, preventive 24 h
# Procedure: as §1, §2, §3, §4, §5, §6, §7, §8, §9
# [5] = test system: Zymoseptoria tritici strain Zt 19-52; experiment: In planta preventive efficacy on wheat cv. Alixan against Zymoseptoria tritici strain Zt 19-52; details: % of length of 2nd leaf blade, preventive 24 h
# Procedure: as §1, §2, §3, §4, §5, §6, §7, §8, §9
# [6] = test system: Zymoseptoria tritici strain Zt 38-02; experiment: In planta preventive efficacy on wheat cv. Alixan against Zymoseptoria tritici strain Zt 38-02; details: for Disease Severity Intensity: % of length of 2nd leaf blade, preventive 24 h; for AUDPC: control 1261.4
# Procedure: as §1, §2, §3, §4, §5, §6, §7, §8, §9
# [7] = 15 dpi, rate N (g a.i./ha): ADF-16 100, penthiopyrad 200, metconazole 90, tebuconazole 250, control also no disease
# [8] = 15 dpi, rate N/2.5 (g a.i./ha): ADF-16 40, penthiopyrad 80, metconazole 36, tebuconazole 100, control also no disease
# [9] = rate N (g a.i./ha): ADF-16 100, penthiopyrad 200, metconazole 90, tebuconazole 250
# [10] = rate N/2.5 (g a.i./ha): ADF-16 40, penthiopyrad 80, metconazole 36, tebuconazole 100
smiles,measurement,setting,value
CC(C)(C)C(O)(CCc1ccc(Cl)cc1)Cn1cncn1 (stereo not drawn) [Tebuconazole],Disease Severity Intensity,[1]; [7],No disease
same,Disease Severity Intensity,[1]; [8],No disease
same,Disease Severity Intensity,"[1]; 21 dpi, rate N (g a.i./ha): ADF-16 100, penthiopyrad 200, metconazole 90, tebuconazole 250, control 36.5",0.0 +/− 0.0b %
same,Disease Severity Intensity,"[1]; 21 dpi, rate N/2.5 (g a.i./ha): ADF-16 40, penthiopyrad 80, metconazole 36, tebuconazole 100, control 36.5",0.0 +/− 0.0b %
same,Disease Severity Intensity,"[1]; 28 dpi, rate N (g a.i./ha): ADF-16 100, penthiopyrad 200, metconazole 90, tebuconazole 250, control 77.4",0.0 +/− 0.0b %
same,Disease Severity Intensity,"[1]; 28 dpi, rate N/2.5 (g a.i./ha): ADF-16 40, penthiopyrad 80, metconazole 36, tebuconazole 100, control 77.4",0.0 +/− 0.0b %
same,"Efficacy (from AUDPC, percentage of the untreated control)",[1]; [9],100%
same,AUDPC,[1]; [9],0.0 +/− 0.0b
same,"Efficacy (from AUDPC, percentage of the untreated control)",[1]; [10],100%
same,AUDPC,[1]; [10],0.0 +/− 0.0b
same,Disease Severity Intensity,"[2]; 15 dpi, rate N (g a.i./ha): ADF-16 100, penthiopyrad 200, metconazole 90, tebuconazole 250, control 47.9",0.0 +/− 0.0d %
same,Disease Severity Intensity,"[2]; 15 dpi, rate N/2.5 (g a.i./ha): ADF-16 40, penthiopyrad 80, metconazole 36, tebuconazole 100, control 47.9",0.0 +/− 0.0d %
same,Disease Severity Intensity,"[2]; 21 dpi, rate N (g a.i./ha): ADF-16 100, penthiopyrad 200, metconazole 90, tebuconazole 250, control 81.0",1.5 +/− 0.8f %
same,Disease Severity Intensity,"[2]; 21 dpi, rate N/2.5 (g a.i./ha): ADF-16 40, penthiopyrad 80, metconazole 36, tebuconazole 100, control 81.0",12.1 +/− 1.7e %
same,Disease Severity Intensity,"[2]; 28 dpi, rate N (g a.i./ha): ADF-16 100, penthiopyrad 200, metconazole 90, tebuconazole 250, control 92.2",12.8 +/− 2.5d %
same,Disease Severity Intensity,"[2]; 28 dpi, rate N/2.5 (g a.i./ha): ADF-16 40, penthiopyrad 80, metconazole 36, tebuconazole 100, control 92.2",58.7 +/− 4.6c %
same,"Efficacy (from AUDPC, percentage of the untreated control)",[2]; [9],96.0%
same,AUDPC,[2]; [9],54.0 ± 3.3 g
same,"Efficacy (from AUDPC, percentage of the untreated control)",[2]; [10],79.0%
same,AUDPC,[2]; [10],283.9 +/− 30.0f^
same,Disease Severity Intensity,[3]; [7],No disease
same,Disease Severity Intensity,[3]; [8],No disease
same,Disease Severity Intensity,"[3]; 21 dpi, rate N (g a.i./ha): ADF-16 100, penthiopyrad 200, metconazole 90, tebuconazole 250, control 63.3",1.5 +/− 0.9d %
same,Disease Severity Intensity,"[3]; 21 dpi, rate N/2.5 (g a.i./ha): ADF-16 40, penthiopyrad 80, metconazole 36, tebuconazole 100, control 63.3",11.8 +/− 3.6c %
same,Disease Severity Intensity,"[3]; 28 dpi, rate N (g a.i./ha): ADF-16 100, penthiopyrad 200, metconazole 90, tebuconazole 250, control 88.1",30.7 +/− 5.3d %
same,Disease Severity Intensity,"[3]; 28 dpi, rate N/2.5 (g a.i./ha): ADF-16 40, penthiopyrad 80, metconazole 36, tebuconazole 100, control 88.1",54.3 +/− 6.2c %
same,fungicide efficacy,[3]; higher application rates (N),≥ 85%
same,fungicide efficacy,[3]; lower application rates (N/2.5),≤ 70%
same,"Efficacy (from AUDPC, percentage of the untreated control)",[3]; [9],89.5%
same,AUDPC,[3]; [9],125.1 ± 46.8 days
same,"Efficacy (from AUDPC, percentage of the untreated control)",[3]; [10],70.3%
same,AUDPC,[3]; [10],354.9 +/− 103.8bc
same,Disease Severity Intensity,[4]; [7],No disease
same,Disease Severity Intensity,[4]; [8],No disease
same,Disease Severity Intensity,"[4]; 21 dpi, rate N (g a.i./ha): ADF-16 100, penthiopyrad 200, metconazole 90, tebuconazole 250, control 77.2",0.6 +/− 0.5de %
same,Disease Severity Intensity,"[4]; 21 dpi, rate N/2.5 (g a.i./ha): ADF-16 40, penthiopyrad 80, metconazole 36, tebuconazole 100, control 77.2",4.6 +/− 1.3c %
same,Disease Severity Intensity,"[4]; 28 dpi, rate N (g a.i./ha): ADF-16 100, penthiopyrad 200, metconazole 90, tebuconazole 250, control 95.5",17.1 +/− 1.9e %
same,Disease Severity Intensity,"[4]; 28 dpi, rate N/2.5 (g a.i./ha): ADF-16 40, penthiopyrad 80, metconazole 36, tebuconazole 100, control 95.5",54.8 +/− 3.7c %
same,Disease Severity Intensity,"[5]; 15 dpi, rate N (g a.i./ha): ADF-16 100, penthiopyrad 200, metconazole 90, tebuconazole 250, control 22.0",0.0 +/− 0.0b %
same,Disease Severity Intensity,"[5]; 15 dpi, rate N/2.5 (g a.i./ha): ADF-16 40, penthiopyrad 80, metconazole 36, tebuconazole 100, control 22.0",0.0 +/− 0.0b %
same,Disease Severity Intensity,"[5]; 21 dpi, rate N (g a.i./ha): ADF-16 100, penthiopyrad 200, metconazole 90, tebuconazole 250, control 81.7",0.2 +/− 0.2c %
same,Disease Severity Intensity,"[5]; 21 dpi, rate N/2.5 (g a.i./ha): ADF-16 40, penthiopyrad 80, metconazole 36, tebuconazole 100, control 81.7",0.7 +/− 0.4bc %
same,Disease Severity Intensity,"[5]; 28 dpi, rate N (g a.i./ha): ADF-16 100, penthiopyrad 200, metconazole 90, tebuconazole 250, control 91.0",7.9 +/− 2.2cd %
same,Disease Severity Intensity,"[5]; 28 dpi, rate N/2.5 (g a.i./ha): ADF-16 40, penthiopyrad 80, metconazole 36, tebuconazole 100, control 91.0",13.1 +/− 2.3c %
same,Disease Severity Intensity,"[6]; 15 dpi, rate N (g a.i./ha): ADF-16 100, penthiopyrad 200, metconazole 90, tebuconazole 250, control 36.0",0.0 +/− 0.0b %
same,Disease Severity Intensity,"[6]; 15 dpi, rate N/2.5 (g a.i./ha): ADF-16 40, penthiopyrad 80, metconazole 36, tebuconazole 100, control 36.0",0.0 +/− 0.0b %
same,Disease Severity Intensity,"[6]; 21 dpi, rate N (g a.i./ha): ADF-16 100, penthiopyrad 200, metconazole 90, tebuconazole 250, control 84.3",9.3 +/− 1.9e %
same,Disease Severity Intensity,"[6]; 21 dpi, rate N/2.5 (g a.i./ha): ADF-16 40, penthiopyrad 80, metconazole 36, tebuconazole 100, control 84.3",62.2 +/− 4.5bc %
same,Disease Severity Intensity,"[6]; 28 dpi, rate N (g a.i./ha): ADF-16 100, penthiopyrad 200, metconazole 90, tebuconazole 250, control 95.7",45.1 +/− 4.0d %
same,Disease Severity Intensity,"[6]; 28 dpi, rate N/2.5 (g a.i./ha): ADF-16 40, penthiopyrad 80, metconazole 36, tebuconazole 100, control 95.7",93.3 +/− 0.9ab %
same,"Efficacy (from AUDPC, percentage of the untreated control)",[6]; [9],82.7%
same,AUDPC,[6]; [9],218.1 ± 3.5 days
same,"Efficacy (from AUDPC, percentage of the untreated control)",[6]; [10],42.3%
same,AUDPC,[6]; [10],728.1 +/− 31.6b

# Source: patent publication US20260372303A1, “5-Fluoro-4-Imino-3-Methyl-1-Tosyl-3, 4-Dihydropyrimidin-2(1H) -One for Fungicide-Resistant Fungus” (priority 2022, published 2026)
